Here are results for 25 compounds from PubChem BioAssay (NCI).

Common to all, as to assay: NCI tumour cell line growth inhibition, 48 h
The test system of assay [1] is OVCAR-8 ovarian.
For assay [2], the system named is SNB-75 CNS.
Assay [3] deals with M19-MEL melanoma.
For assay [4], the system named is KM20L2 colon.
The test system of assay [5] is XF 498 CNS.
Assay [6] has as its system DMS 114 small cell lung.
The subject of assay [7] is UACC-257 melanoma.
Assay [8] deals with SK-MEL-28 melanoma.
The subject of assay [9] is COLO 205 colon.
In assay [10] the test system is 786-0 renal.
The subject of assay [11] is TK-10 renal.
Assay [12] has as its system OVCAR-3 ovarian.

The structures appear in SMILES notation.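 Cultured in 96-well plates, cells were exposed to test compound for 48 hours across five concentrations. GI50 is the concentration that inhibits growth by half. Definition used: TGI = concentration required for complete inhibition of growth.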 Some results are limits rather than exact numbers.

Regarding `N#CCN1C(=O)c2cc([N+](=O)[O-])cc3cc([N+](=O)[O-])cc(c23)C1=O`, the TGI in assay [1] stood at 56.4 µM; in [2], 84.8 µM; in [3], 37.7 µM; in [4], 23.6 µM; in assay [5], 25 µM; in [6] it was 37.5 µM. Further, the TGI in assay [7] is 28.6 µM; in assay [8], greater than 52.8 µM; in assay [9], 36.6 µM; in [10], 42.8 µM; in assay [11], greater than 79.9 µM; in assay [12] it was 27.1 µM.

Consider `CC(=O)/C(=C\c1ccccc1O)C(=O)Nc1ccccc1C`, for which the TGI in [1] is greater than 100 µM; in assay [3] it was greater than 100 µM; in assay [5], 28.1 µM; in assay [6], greater than 100 µM; in assay [7] it was greater than 100 µM; in assay [8], 53.8 µM. For the same compound, the TGI is 29.4 µM in assay [10] and 72 µM in assay [12].

As for `NC1=NC(=O)C(CC(=O)Nc2ccc(Cl)cc2Cl)S1` (centres undefined), the TGI in assay [1], in assay [2], in assay [3], in assay [4], in assay [5] and in assay [7] was greater than 100 µM each time. Further, the TGI in assay [8], in assay [9], in assay [10], in [11] and in assay [12] was greater than 100 µM each time.

With `O=C1OC(=O)c2c1c(-c1ccccc1)nc1ccccc21`, the TGI in assay [1], in assay [2], in assay [3], in assay [4], in assay [5] and in assay [6] was greater than 100 µM throughout. The TGI in assay [7], in assay [8], in assay [9], in assay [10], in [11] and in [12] was greater than 100 µM throughout.

Consider `O=C(NCCNCCO)c1cccc2ccc(-c3ccccc3)nc12`, for which the TGI in [1] was 19.5 µM; in [2], 22.3 µM; in assay [3] it was 15.7 µM; in assay [6], 19.8 µM; in [7], 14.2 µM; in assay [8], 22.1 µM. Besides, the TGI was 13.6 µM in assay [9], 19.6 µM in assay [10], 6.72 µM in assay [11] and 25.1 µM in assay [12].

In the case of `O=Cc1ccc2c(c1I)OCO2`, the TGI in [1], in assay [2], in [3], in [4], in [7] and in assay [9] was greater than 100 µM each time. In addition, the TGI in assay [10], in [11] and in [12] was greater than 100 µM throughout.

Regarding `ClC1=C(Cl)C(Cl)(Cl)c2c3c(c4c(c21)C(Cl)(Cl)C(Cl)=C4Cl)C(Cl)(Cl)C(Cl)=C3Cl`, the TGI in assay [1], in [4], in [5], in [6], in assay [7] and in [8] was greater than 100 µM each time. Besides, the TGI in assay [9], in assay [10] and in assay [12] was greater than 100 µM throughout.

Consider `COc1ccc(-c2cc(=O)c3c(O)cccc3o2)c(OC)c1OC`, for which the TGI was greater than 100 µM in [1]; 75.5 µM in [2]; greater than 100 µM in assay [3]; greater than 100 µM in [4]; greater than 100 µM in assay [5]; greater than 100 µM in assay [6]. The TGI in assay [7], in assay [8], in [9], in [10], in assay [11] and in [12] was greater than 100 µM each time.

In the case of `CC(C)(C)c1cc2nc(c1)C(C(F)(F)F)(C(F)(F)F)OB(Br)OC2(C(F)(F)F)C(F)(F)F`, the TGI in assay [1] was found to be 0.427 µM; in assay [2], 13 µM; in [3], 12.2 µM; in assay [4], 1.25 µM; in assay [5], 6.91 µM; in assay [6] it was 0.421 µM. The TGI amounted to 0.188 µM in [7]; 18.6 µM in [8]; 0.364 µM in [9]; 1.81 µM in assay [10]; 5.5 µM in [11].

As for `O=C(O)CCNS(=O)(=O)c1ccc([N+](=O)[O-])cc1`, the TGI in assay [1], in [2], in [3], in [4], in assay [5] and in [7] was greater than 100 µM in each case. Moreover, the TGI in assay [8], in assay [9], in assay [10], in assay [11] and in [12] was greater than 100 µM throughout.

As to `COc1cc(C2(C)SCCCS2)cc(OC)c1OC`, the TGI in [1], in assay [2], in assay [3], in [4], in [6] and in [7] was greater than 100 µM in each case. Besides, the TGI in assay [8], in assay [9], in assay [10], in [11] and in assay [12] was greater than 100 µM each time.

For `COC(=O)C(C(=O)C(=O)Nc1ccc([N+](=O)[O-])cc1)c1nc2ccc([N+](=O)[O-])cc2[nH]c1=O` (centres undefined), the TGI in [1], in [2], in assay [3], in assay [4], in [6] and in assay [7] was greater than 100 µM in each case. Further, the TGI in assay [8], in assay [9], in assay [10], in [11] and in [12] was greater than 100 µM in each case.

Turning to `Cc1cc2c(c(C(N)=O)c1C)-c1cc(Cl)cc(Cl)c1C2=O`, the TGI was greater than 100 µM in assay [1]; 45.6 µM in assay [2]; greater than 100 µM in assay [3]; greater than 100 µM in [4]; greater than 100 µM in [6]; greater than 100 µM in assay [7]. Moreover, the TGI in [8], in [9], in assay [10], in assay [11] and in assay [12] was greater than 100 µM each time.

As to `Cc1ccccc1-n1c(N)c(-c2nc3ccccc3[nH]2)sc1=S`, the TGI was 84.2 µM in assay [1]; 56.6 µM in assay [2]; 50.5 µM in assay [3]; 59 µM in [6]; 36.6 µM in assay [7]; 39.3 µM in assay [8]. In addition, the TGI in [9] stood at 49 µM; in [10], 81.3 µM; in assay [11], 85.8 µM; in assay [12], 41.1 µM.

As to `CCOC(=O)C1Nc2ccccc2[C@H]2OCC[C@@H]12` (some centres undefined), the TGI in assay [1], in [2], in assay [3], in assay [4], in assay [5] and in assay [7] was greater than 100 µM throughout. Besides, the TGI in [8], in assay [9], in [10], in assay [11] and in assay [12] was greater than 100 µM each time.

As to `CCCC(S(=O)(=O)c1ccccc1)S(=O)(=O)c1ccccc1`, the TGI in assay [1], in assay [2], in assay [3], in assay [4], in assay [5] and in assay [6] was greater than 100 µM in each case. Moreover, the TGI in assay [7], in [8], in [10], in assay [11] and in assay [12] was greater than 100 µM throughout.

For the compound `O=C(/C=C/c1ccc(Cl)c(Cl)c1)c1cccc2ccccc12`, the TGI in [1] came out at 4.74 µM; in assay [2], 14 µM; in assay [3], 24.6 µM; in [4], 17.7 µM; in assay [6], 9.51 µM; in assay [7] it was 29.5 µM. The TGI is 33.5 µM in assay [8]; 26.2 µM in [9]; 13.2 µM in assay [10]; 30.5 µM in assay [11]; 18.6 µM in [12].

As for `CC1=C(CC2C(=O)N(c3ccccc3)S(=O)(=O)NC2C)C(=O)N(c2ccccc2)S(=O)(=O)N1C` (centres undefined), the TGI in assay [1], in [2], in assay [3], in assay [4], in [5] and in [6] was greater than 100 µM throughout. In addition, the TGI in assay [8], in assay [9], in [10], in assay [11] and in assay [12] was greater than 100 µM throughout.

`COc1ccc(OC(=O)CC2Cc3cc(OC)c(OC)c(OC)c3-c3ccc(SC)c(=O)cc32)cc1` (centres undefined): the TGI in [1] was greater than 37.1 µM; in [2], greater than 100 µM; in assay [3], greater than 100 µM; in assay [5] it was 7.8 µM; in [6], 5.52 µM; in [7] it was greater than 54.2 µM. In addition, the TGI in assay [8] is 98.9 µM; in assay [9] it was greater than 100 µM; in assay [10], greater than 36 µM; in [11] it was greater than 100 µM.

Regarding `CC1=NN(c2ccccc2)C(=O)/C1=C\c1ccc([N+](=O)[O-])cc1`, the TGI in [1] is greater than 100 µM; in [2], greater than 100 µM; in assay [4] it was greater than 100 µM; in assay [5], 44.6 µM; in assay [6] it was 50 µM; in assay [7], greater than 100 µM. Moreover, the TGI in [8] was greater than 100 µM; in assay [9] it was 33 µM; in [10] it was 85.8 µM; in assay [11], greater than 100 µM.

Turning to `O=C(Cc1nc2ccccc2o1)C(=O)Nc1cccc(C(F)(F)F)c1`, the TGI in assay [1], in assay [2], in assay [3], in assay [4], in assay [6] and in assay [7] was greater than 100 µM each time. Moreover, the TGI in [8], in [9], in [10], in assay [11] and in assay [12] was greater than 100 µM throughout.

`N#CNc1nc(N)c(-c2ccc(Cl)cc2)c(C(=O)Nc2nccs2)n1`: the TGI in [1], in assay [2], in assay [3], in [4], in assay [5] and in [6] was greater than 100 µM throughout. Also, the TGI in assay [7], in [8], in assay [10], in assay [11] and in assay [12] was greater than 100 µM in each case.

For `O=Nc1c(-c2c(O)[nH]c3ncccc23)[nH]c2ccccc12`, the GI50 in assay [1] is greater than 100 µM; in assay [2], 2560 nM; in assay [7], greater than 100 µM; in assay [8], greater than 57.3 µM; in assay [9], 28.4 µM; in assay [10], 21.8 µM. The figures for the GI50 in [11] and in [12] were 5.52 µM and greater than 100 µM, respectively. Moreover, the TGI in assay [1], in assay [2], in assay [7], in assay [8], in [9] and in assay [10] was greater than 100 µM in each case. The TGI in assay [11] and in [12] was greater than 100 µM throughout.

For `O=C1C=C(O)C(=Cc2c(O)cc(O)cc2O)C(O)=C1`, the TGI in [1], in assay [2], in [3], in [4], in assay [5] and in assay [6] was greater than 100 µM throughout. Moreover, the TGI in assay [7], in assay [9], in [10], in [11] and in [12] was greater than 100 µM throughout.

With `Cc1[nH]nc(-c2ccon2)c1N=O`, the TGI was 31.6 µM in assay [1]; greater than 100 µM in [2]; 31.7 µM in assay [7]; 43.1 µM in assay [8]; 49.4 µM in assay [9]; 39.2 µM in assay [10]. Also, the TGI in assay [11] amounted to 32.9 µM; in assay [12] it was 33.7 µM.
